We go through 5 molecules from paper PMC9989931, “Membrane‐acting biomimetic peptoids against visceral leishmaniasis” (FEBS Open Bio, 2023).

Where “and” joins values, the source holds several entries; their conditions need not be identical. Equal values may be shown once. Entries after “also recorded” stand apart in the source; their conditions may differ. Square brackets hold non-standard residues; d marks the D form. Peptide text beside a SMILES is read from it. Nspe(4-Br) = C[C@H](NCC(=O)O)c1ccc(Br)cc1; N(tridecyl)Gly = CCCCCCCCCCCCCNCC(=O)O; Nspe = C[C@H](NCC(=O)O)c1ccccc1; Nlys = NCCCCNCC(=O)O Where only a bound is given, the exact number is not on record here.

Series [1] concerns Leishmania donovani intracellular amastigotes. Put plainly: Intracellular amastigote clearance in infected RAW 264.7 macrophages (Giemsa staining, microscopy). The class given is cell-based. Details: key to Effect on intracellular amastigotes: *: Good; **: Better; ***: Best. The note with it: infected RAW 264.7 cells, 10 μM peptoid; for Effect on intracellular amastigotes: Giemsa staining, grade; for Effect on intracellular amastigotes by Giemsa staining (number, size, count): vs untreated control, 24 h or 4 h. How it is done: To evaluate the inhibitory effect of different peptoids on intracellular amastigotes, RAW 264.7 cells were infected with logarithmic phase promastigotes. Briefly, RAW 264.7 cells (10^5 cells/well) were seeded in 24‐well plates with round sterile coverslips and allowed to adhere to the coverslip for 24 h at 37 °C at 5% CO2 DMEM media supplemented with 10% FBS. Adherent macrophages were infected with L. donovani promastigotes at 1 : 10 (macrophage: promastigotes) for 6 h. Co‐infected cells were washed with PBS three times and incubated for a further 24 h for infection establishment. After 24 h, media were removed and again washed with FBS‐free DMEM followed by peptoid treatment. Ten μM of different peptoids were added to the co‐infected cells and incubated for 4 h at 37 °C at 5% CO2. After 4 h, peptoid‐treated co‐infected cells were washed with PBS, fixed with 100% methanol, and stained with diluted Giemsa stain (1 : 10) (HiMedia, Mumbai, India). The parasite clearance status of peptoids was determined by counting the number of the parasites using the Leica LAS core microscope system by counting 100 cells per coverslip.
Fig. 2 Giemsa staining of intracellular amastigotes in macrophage 264.7 cells after treatment with different peptoids at 10 μM concentrations. Untreated amastigotes (A), sample treated with TM 1 (B), TM 2 (C), TM 3 (D), TM 4 (E), TM 5 (F), TM 7 (G), TM 9 (H), and TM 10 (I). Red arrow points to the amastigotes form of Leishmania donovani parasite. Scale bar represents […].

The subject of series [2] is Leishmania donovani promastigotes (Bob strain). The class given is cell-based. The note with it: 4 h; for Reduction of promastigote viability: at 3 μM, MTT, vs untreated cells. As for the experimental part:
Promastigotes of bob L. donovani were harvested in the log phase, and parasite inhibition was determined through 3‐(4,5‐dimethylthiazol‐2‐yl)‐2,5‐diphenyl‐tetrazolium bromide (MTT) methods using twofold dilution techniques. Briefly, promastigote density of 2 × 10^6 cells was taken, and different peptoid dilutions were added (0.187–3 μM) in a total volume of 100 μL. Percentage parasite viability was evaluated at 4 h at 25 °C using MTT (Sigma‐Aldrich). Parasite viability rate (%) = [OD of test sample/OD of untreated sample] × 100.
All experiments were carried out in triplicate and repeated at least three times independently (biological replicates), and the figures shown are representative of these experiments. IC50 was calculated using GRAPHPAD PRISM 6.0 software. The data were analyzed using Student's t‐test for comparison of two groups, and data values were expressed as mean ± standard deviation (SD). Significant differences were determined and designated with asterisks as follows: *P < 0.05; **P < 0.01; ***P < 0.001; and ****P < 0.0001.
Fig. 1 Antileishmanial activity of peptoids against Leishmania donovani promastigotes. Early‐logarithmic‐phase promastigotes of L. donovani bob strain were treated with different peptoids at different concentrations (0–3 μM) for 4 h. Negative control was considered 100% of cell viability (untreated) and positive control (Triton X treated). Cellular viability was assessed by MTT assay, and the IC50 values were calculated using GRAPHPAD PRISM 6.0. Error bars represent SD N = 3 and n = 3.

For a further series, the system named is RAW 264.7 cells. Put plainly: Cytotoxicity against RAW 264.7 cells (MTT). The class given is cell-based, murine. The note with it: for Host cell viability: 20 µM. As for the experimental part: The cytotoxicity of different peptoids against RAW 264.7 cells was assessed by the MTT method following a published protocol. Briefly, murine macrophages were seeded in a 96‐well plate using DMEM supplemented with 10% FBS maintained at 37 °C and 5% CO2 for 24 h. Next, different concentrations of peptoids (5–80 μM) were added and incubated for 24 h followed by the addition of MTT for 2 h and solubilization of formazene crystals with DMSO addition. Percentage cell viability was calculated relative to the peptoid untreated sample.
Fig. 6 Percentage of living RAW 264.7 cells after incubation with different concentrations of peptoids. RAW 264.7 macrophage cells were incubated with peptoid for 24 h. […] The working concentration of 10 μM of peptoids caused only 50% or lower cytotoxicity in RAW 264.7 cells. Cell viability was determined by MTT assay, and data based on three experiments are represented by mean ± SD.

Take `C[C@@H](c1ccc(Br)cc1)N(CC(N)=O)C(=O)CN(C(=O)CN(CCCCN)C(=O)CN(C(=O)CN(C(=O)CNCCCCN)[C@@H](C)c1ccccc1)[C@@H](C)c1ccccc1)[C@@H](C)c1ccccc1` [TM3] (H-[Nlys][Nspe][Nspe][Nlys][Nspe][Nspe(4-Br)]-NH2): the “Effect on intracellular amastigotes” value in series [1] is listed as “*”. Half-maximal inhibition in series [2] (IC50) required 4.6 µM. In addition, in the series on RAW 264.7 cells, the Host cell viability entry is “no toxicity”.

Take `C[C@@H](c1ccccc1)N(CC(N)=O)C(=O)CN(C(=O)CN(CCCCN)C(=O)CN(C(=O)CN(C(=O)CN(CCCCN)C(=O)CN(C(=O)CN(C(=O)CN(CCCCN)C(=O)CN(C(=O)CN(C(=O)CNCCCCN)[C@@H](C)c1ccccc1)[C@@H](C)c1ccccc1)[C@@H](C)c1ccccc1)[C@@H](C)c1ccccc1)[C@@H](C)c1ccccc1)[C@@H](C)c1ccccc1)[C@@H](C)c1ccccc1` [TM1] (H-[Nlys][Nspe][Nspe][Nlys][Nspe][Nspe][Nlys][Nspe][Nspe][Nlys][Nspe][Nspe]-NH2): in series [1], the “Effect on intracellular amastigotes by Giemsa staining (number, size, count)” value (“Effect … (number, size, count)” below) was “reduction in number and size of amastigotes; also recorded: reduces the amastigote count”; the “Effect on intracellular amastigotes” value is on record as “***”. Further, the “Reduction of promastigote viability” value in series [2] is no less than 50%. The “Reduction in host cell viability” value in the series with RAW 264.7 cells (RAW 264.7 cells, 10 μM, 24 h, MTT) was ~ 40% and 40%.

For the molecule `CCCCCCCCCCCCCNCC(=O)N(CCCCN)CC(=O)N(CC(=O)N(CC(=O)N(CCCCN)CC(=O)N(CC(=O)N(CC(N)=O)[C@@H](C)c1ccc(Br)cc1)[C@@H](C)c1ccccc1)[C@@H](C)c1ccc(Br)cc1)[C@@H](C)c1ccccc1` [TM10] (H-[N(tridecyl)Gly][Nlys][Nspe][Nspe(4-Br)][Nlys][Nspe][Nspe(4-Br)]-NH2), in series [1], the “Effect … (number, size, count)” value was “reduction in number and size of amastigotes; also recorded: significantly reduced their count”; the “Effect on intracellular amastigotes” value was “***”. In addition, 1.54 µM corresponded to half-maximal inhibition in series [2] (IC50).

As for `C[C@@H](c1ccccc1)N(CC(N)=O)C(=O)CN(C(=O)CN(CCCCN)C(=O)CN(C(=O)CN(C(=O)CNCCCCN)[C@@H](C)c1ccccc1)[C@@H](C)c1ccccc1)[C@@H](C)c1ccccc1` [TM7] (H-[Nlys][Nspe][Nspe][Nlys][Nspe][Nspe]-NH2), in series [1], the “Effect … (number, size, count)” value was “reduction in number and size of amastigotes; also recorded: significantly reduced their count”; the “Effect on intracellular amastigotes” value is on record as “**”. Moreover, in series [2], the IC50 was 3.03 µM and the “Reduction of promastigote viability” value was no less than 50%. Further, in the series on RAW 264.7 cells, the Host cell viability entry was “no toxicity”.

Turning to `C[C@@H](c1ccc(Br)cc1)N(CC(N)=O)C(=O)CN(C(=O)CN(CCCCN)C(=O)CN(C(=O)CN(C(=O)CNCCCCN)[C@@H](C)c1ccccc1)[C@@H](C)c1ccc(Br)cc1)[C@@H](C)c1ccccc1` [TM2] (H-[Nlys][Nspe][Nspe(4-Br)][Nlys][Nspe][Nspe(4-Br)]-NH2), in series [1], the “Effect on intracellular amastigotes” value is listed as “*”. Besides, in series [2], the IC50 was 1.4 µM and the “Reduction of promastigote viability” value was no less than 50%. The Host cell viability result with RAW 264.7 cells is “more than 50%”.
